Reference: patent US9469606B2, “Wnt/b-catenin inhibitors and methods of use” (The General Hospital Corporation, priority 2011, dated 2016)

Columns and labels:
[1] = test system: β-catenin; test: Western blotting and immunoprecipitation of β-catenin forms; assay type: cell-based
From the text: (§1) See, for example: • Polakis P. Drugging Wnt signalling in cancer. EMBO J. 2012 May 22; 31(12):2737-46; Bialkowska A B, Yang V W. High-throughput screening strategies for targeted identification of therapeutic compounds in colorectal cancer. Future Oncol. 2012 March; 8(3):259-72; • Huang S M, Mishina Y M, Liu S, Cheung A, Stegmeier F, Michaud G A, Charlat O, Wiellette E, Zhang Y, Wiessner S. Hild M, Shi X, Wilson C J, Mickanin C. Myer V, Fazal A, Tomlinson R, Serluca F, Shao W, Cheng H, Shultz M, Rau C, Schirle M, Schlegl J, Ghidelli S, Fawell S, Lu C, Curtis D, Kirschner M W, Lengauer C. Finan P M, Tallarico J A, Bouwmeester T, Porter J A, Bauer A, Cong F. Tankyrase inhibition stabilizes axin and antagonizes Wnt signalling. Nature. 2009 Oct. 1; 461(7264):614-20; • Chen B, Dodge M E, Tang W, Lu J, Ma Z, Fan C W, Wei S, Hao W, Kilgore J, Williams N S, Roth M G, Amatruda J F. Chen C. Lum L. Small molecule-mediated disruption of Wnt-dependent signaling in tissue regeneration and cancer. Nat Chem. Biol. 2009 February; 5(2): 100-7; • Thorne C A, Hanson A J, Schneider J, Tahinci E, Orton D, Cselenyi C S, Jernigan K K, Meyers K C, Hang B I, Waterson A G, Kim K, Melancon B, Ghidu V P, Sulikowski G A, LaFleur B, Salic A, Lee L A, Miller D M 3rd, Lee E. Small-molecule inhibition of Wnt signaling through activation of casein kinase 1α. Nat Chem. Biol. 2010 November; 6(11):829-36; • Wei W, Chua M S. Grepper S, So S. Small molecule antagonists of Tcf4/beta-catenin complex inhibit the growth of HCC cells in vitro and in vivo. Int J Cancer. 2010 May 15; 126(10):2426-36; • Lepourcelet M, Chen Y N, France D S, Wang H, Crews P, Petersen F, Bruseo C, Wood A W, Shivdasani R A. Small-molecule antagonists of the oncogenic Tcf/beta-catenin protein complex. Cancer Cell. 2004 January; 5(1):91-102; • Grossmann T N, Yeh J T, Bowman B R, Chu Q, Moellering R E, Verdine G L. Inhibition of oncogenic Wnt signaling through direct targeting of β-catenin. Proc Natl Acad Sci USA. 2012 Oct. 15. […]

[2] = test system: Wnt/β-catenin-independent cancer cells; test: Cytotoxicity in Wnt/β-catenin-independent cancer cells; assay type: cell-based
From the text: as §1, with “1α.” for “1α. Nat Chem. Biol. 2010 November; 6(11):829-36; • Wei W, Chua M S. Grepper S, So S. Small molecule antagonists of Tcf4/beta-catenin complex inhibit the growth of HCC cells in vitro and in vivo. Int J Cancer. 2010 May 15; 126(10):2426-36; • Lepourcelet M, Chen Y N, France D S, Wang H, Crews P, Petersen F, Bruseo C, Wood A W, Shivdasani R A. Small-molecule antagonists of the oncogenic Tcf/beta-catenin protein complex. Cancer Cell. 2004 January; 5(1):91-102; • Grossmann T N, Yeh J T, Bowman B R, Chu Q, Moellering R E, Verdine G L. Inhibition of oncogenic Wnt signaling through direct targeting of β-catenin. Proc Natl Acad Sci USA. 2012 Oct. 15.”

[3] = test system: HCT116 colon cancer cells; test: Xenograft study, HCT116; assay type: in vivo; settings: HCT116 xenograft in mice, 20 mg/kg daily i.p.
Method: (§2) A, HCT116 colon cancer cells; B, HT115 colon cancer cells; and C, H23 human lung cancer cells. 20 mg/kg was injected daily via i.p.
(§3) See, for example: • Polakis P. Drugging Wnt signalling in cancer. EMBO J. 2012 May 22; 31(12):2737-46; Bialkowska A B, Yang V W. High-throughput screening strategies for targeted identification of therapeutic compounds in colorectal cancer. Future Oncol. 2012 March; 8(3):259-72; • Huang S M, Mishina Y M, Liu S, Cheung A, Stegmeier F, Michaud G A, Charlat O, Wiellette E, Zhang Y, Wiessner S. Hild M, Shi X, Wilson C J, Mickanin C. Myer V, Fazal A, Tomlinson R, Serluca F, Shao W, Cheng H, Shultz M, Rau C, Schirle M, Schlegl J, Ghidelli S, Fawell S, Lu C, Curtis D, Kirschner M W, Lengauer C. Finan P M, Tallarico J A, Bouwmeester T, Porter J A, Bauer A, Cong F. Tankyrase inhibition stabilizes axin and antagonizes Wnt signalling. Nature. 2009 Oct. 1; 461(7264):614-20; • Chen B, Dodge M E, Tang W, Lu J, Ma Z, Fan C W, Wei S, Hao W, Kilgore J, Williams N S, Roth M G, Amatruda J F. Chen C. Lum L. Small molecule-mediated disruption of Wnt-dependent signaling in tissue regeneration and cancer. […]

[4] = test system: H460 human lung cancer cells; test: Wnt/b-catenin-independent tumor growth, H460; assay type: in vivo; settings: Wnt/b-catenin-independent H460 tumors in mice
From the text: (§4) See, for example: • Polakis P. Drugging Wnt signalling in cancer. EMBO J. 2012 May 22; 31(12):2737-46; Bialkowska A B, Yang V W. High-throughput screening strategies for targeted identification of therapeutic compounds in colorectal cancer. Future Oncol. 2012 March; 8(3):259-72; • Huang S M, Mishina Y M, Liu S, Cheung A, Stegmeier F, Michaud G A, Charlat O, Wiellette E, Zhang Y, Wiessner S. Hild M, Shi X, Wilson C J, Mickanin C. Myer V, Fazal A, Tomlinson R, Serluca F, Shao W, Cheng H, Shultz M, Rau C, Schirle M, Schlegl J, Ghidelli S, Fawell S, Lu C, Curtis D, Kirschner M W, Lengauer C. Finan P M, Tallarico J A, Bouwmeester T, Porter J A, Bauer A, Cong F. Tankyrase inhibition stabilizes axin and antagonizes Wnt signalling. Nature. 2009 Oct. 1; 461(7264):614-20; • Chen B, Dodge M E, Tang W, Lu J, Ma Z, Fan C W, Wei S, Hao W, Kilgore J, Williams N S, Roth M G, Amatruda J F. Chen C. Lum L. Small molecule-mediated disruption of Wnt-dependent signaling in tissue regeneration and cancer. Nat Chem. Biol. 2009 February; 5(2): 100-7; • Thorne C A, Hanson A J, Schneider J, Tahinci E, Orton D, Cselenyi C S, Jernigan K K, Meyers K C, Hang B I, Waterson A G, Kim K, Melancon B, Ghidu V P, Sulikowski G A, LaFleur B, Salic A, Lee L A, Miller D M 3rd, Lee E. Small-molecule inhibition of Wnt signaling through activation of casein kinase 1α. […]

[5] = test system: β-catenin/TCF-dependent genes; test: Wnt/β-catenin target gene expression (real-time quantitative PCR, protein level); assay type: cell-based
Method: A. mRNA expression was measured by Real-time quantitative PCR.
as §1

[6] = test system: HT115 colon cancer cells; test: Xenograft study, HT115; assay type: in vivo; settings: HT115 xenograft in mice, 20 mg/kg daily i.p.
Method: as §2, §3

[7] = test system: β-catenin/TCF; test: TCF/LEF reporter (TOP-Luciferase) assay in Wnt-dependent HCT116; assay type: cell-based, human
From the text: as §4

[8] = test system: mammary tumor; test: Spontaneous mouse model of breast cancer (MMTV-Wnt1); assay type: in vivo; settings: MMTV-Wnt1 tumor mice
From the text: Raj L, Ide T, Gurkar A U, Foley M, Schenone M, Li X, Tolliday N J, Golub T R, Carr S A, Shamji A F, Stern A M, Mandinova A, Schreiber S L, Lee S W. Selective killing of cancer cells by a small molecule targeting the stress response to ROS. Nature. 2011 Jul. 13; 475(7355):231-4; • Huang S, Li Y, Chen Y, Podsypanina K, Chamorro M, Olshen A B, Desai K V, Tann A, Petersen D, Green J E, Varmus H E. Changes in gene expression during the development of mammary tumors in MMTV-Wnt-1 transgenic mice. Genome Biol. 2005; 6(10):R84.

[9] = test system: β-catenin; test: Wnt-induced β-catenin accumulation; assay type: cell-based
From the text: as §4

[10] = test system: H23 human lung cancer cells; test: Xenograft study, H23; assay type: in vivo; settings: H23 xenograft in mice, 20 mg/kg daily i.p.
Method: as §2, §3

[11] = test system: Wnt/β-catenin-dependent cancer cells; test: Cytotoxicity in Wnt/β-catenin-dependent cancer cells; assay type: cell-based
From the text: as §4

[12] = test system: beta-catenin target gene promoters; test: ChIP-RT-PCR of β-catenin recruitment to target promoters in HCT116 cells; assay type: cell-based, human
From the text: as §4

[13] = test system: β-catenin; test: β-catenin protein level and phosphorylation in HCT116 cells; assay type: cell-based, human
From the text: as §4

[14] = test system: normal cells; test: Cytotoxicity in normal cells; assay type: cell-based
From the text: as §4

[15] = test system: Wnt/β-catenin-dependent cancer cells; test: Colony formation; assay type: cell-based; settings: a number of Wnt/β-catenin-dependent cancer cells
From the text: as §4

TCF/LEF reporter activity [7]: inhibits the TCF/LEF reporter activity
Structure (SMILES): COC(=O)c1cccc(NS(=O)(=O)c2ccc(C)cc2)c1 [OC0021, methyl 3-{[(4-methylphenyl)sulfonyl]amino}benzoate]
ABC (Active form of b-catenin) [1]: supresses ABC
expression of oncogene Myc target gene [1]: inhibits the expression of oncogene Myc target gene
phosphorylated β-catenins (phospho-β-catenin-33/37/41; -41/45) [1]: increases phosphorylated β-catenins
cytotoxic effect [2]: no significant cytotoxic
anti-tumor activity [3]: anti-tumor activity
tumor growth [4]: does not affect
protein level of endogenous β-catenin/TCF-dependent genes, Cyclin D1 and c-Myc [5]: down regulates the protein level
stability of Axin1 and Axin2 [5]: enhances stability of Axin1 and Axin2
Wnt/β-catenin-mediated gene transcription (mRNA expression of Myc, cyclin D1, Axin1 and 2) ([5]; Real-time quantitative PCR): modulates Wnt/β-catenin-mediated gene transcription
anti-tumor activity [6]: anti-tumor activity
transcriptional activity of β-catenin/TCF ([7]; human colon cancer cells HCT116 with beta-catenin mutation): inhibits the transcriptional activity of β-catenin/TCF in a dose dependent manner
growth of mammary tumor [8]: inhibits the growth of mammary tumor
Wnt-induced β-catenin accumulation [9]: inhibits Wnt-induced β-catenin accumulation
anti-tumor activity [10]: anti-tumor activity
cytotoxic effect [11]: cytotoxic effect
beta-catenin binding its target gene promoters [12]: inhibits beta-catenin binding its target gene promoters
beta-catenin protein levels ([13]; HCT116 cells): decreases beta-catenin protein levels
β-catenin degradation / phosphorylation at T41/S45 ([13]; HCT116 colon cancer cells): promotes β-catenin degradation via increased β-catenin phosphorylation at T41/S45
cytotoxic effect [14]: no significant cytotoxic
colony formation [15]: inhibits colony formation
